Target: T1, GFP-Rab34 (LAP-Rab34) (Homo sapiens, UniProt Q9BZG1)
T1 sequence (Q9BZG1 1-259): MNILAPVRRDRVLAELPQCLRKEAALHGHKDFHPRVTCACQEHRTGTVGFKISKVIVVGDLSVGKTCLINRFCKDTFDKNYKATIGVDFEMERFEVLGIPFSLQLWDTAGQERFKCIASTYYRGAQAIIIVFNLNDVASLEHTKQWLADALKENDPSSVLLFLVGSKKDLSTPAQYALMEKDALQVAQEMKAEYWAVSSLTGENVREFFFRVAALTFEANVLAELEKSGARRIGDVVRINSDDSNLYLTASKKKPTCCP
Assay type: cell-based
Conditions: labelled compound; HEK293T cells; 10 mM MgCl2 in lysis buffer

## Nc1nc2c(ncn2[C@@H]2O[C@H](COP(=O)(O)OP(=O)(O)O)[C@@H](O)[C@H]2O)c(=O)[nH]1 [GDP]
  32P metabolic labelling in cells, anti-GFP immunoprecipitation, TLC of bound nuc: wildtype Rab34 was mostly GDP-bound

— PMC8282722 (Current biology : CB, 2021)
